Test results: US20070191336A1 (priority 2003, published 2007)

Each compound was assayed against T1, phospho p-38 alpha kinase (Homo sapiens, UniProt Q16539) (assay: P-38 alpha kinase assay (spectrophotometric, pyruvate kinase/lactate dehydrogenase coupled)). Conditions: Table 2; rates from […] to 2 h time frame.
T1 construct: purchased Panvera
T1 sequence (Q16539 whole entry): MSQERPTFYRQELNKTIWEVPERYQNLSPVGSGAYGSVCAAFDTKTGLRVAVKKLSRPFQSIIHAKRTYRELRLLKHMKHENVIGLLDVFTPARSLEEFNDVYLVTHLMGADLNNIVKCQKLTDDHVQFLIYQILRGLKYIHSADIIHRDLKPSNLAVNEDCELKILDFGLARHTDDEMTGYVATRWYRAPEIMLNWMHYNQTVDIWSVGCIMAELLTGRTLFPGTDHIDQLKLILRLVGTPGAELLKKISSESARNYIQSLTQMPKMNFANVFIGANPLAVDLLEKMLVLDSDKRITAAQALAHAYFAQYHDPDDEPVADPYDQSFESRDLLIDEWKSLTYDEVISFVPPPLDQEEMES
Format: biochemical
Procedure: In this assay, the oxidation of NADH was continuously measured spectrophometrically. […] The reaction was initiated by adding ATP. The absorption at 340 nm was monitored continuously for up to 4 hours at 30° C. on Polarstar Optima plate reader (BMG). The kinase activity (reaction rate) was calculated from the slope at the time frame from 1.5 h to 2 h.
For inhibition determinations, test compounds were incubated with the reaction mixture for ˜5 min before adding ATP to start the reaction. […] IC50 values were calculated from a series of % inhibition values determined at a range of concentrations of each inhibitor using Prism to process the data and fit inhibition curves. Generally, the rates obtained at the time frame of 1.5 h to 2 h were used for these calculations.
Work on `CC(C)(C)c1cc(NC(=O)Nc2ccc(Cl)cc2)n(-c2cccc(CO)c2)n1` [Example F] yielded an IC50 of 437 nM.

Same assay, conditions: Table 3; at 10 uM
In the case of `CC(C)c1cc(NC(=O)Nc2ccc(Cl)cc2)n(-c2cccc(CCC(=O)O)c2)n1` [Example 532], the “% Inhibition @ concentration” value is reported as 66% @ 10.

Same assay, conditions: Table 3; rates from […] to 2 h time frame
`COc1cccc(-n2nc(C(C)(C)C)cc2NC(=O)Nc2cccc(C)c2)c1` [Example 313, 1-(3-t-butyl-1-(3-methoxyphenyl)-1H-pyrazol-5-yl)-3-m-tolylurea] was tested, and the IC50 was 250 nM. Work on `O=C(Nc1cccc(Cl)c1)Nc1cc(-c2ccccc2)nn1-c1cccc(CO)c1` [Example 455, 1-{3-phenyl-1-[3-(hydroxymethyl)phenyl]-1H-pyrazol-5-yl}-3-(3-chlorophenyl)urea] yielded an IC50 of 100 nM. `CC(C)(C)c1cc(NC(=O)Nc2ccc(Cl)cc2)n(-c2cccc(CN3C(=O)NC(=O)C3=O)c2)n1` [Example 481, 1-{3-t-butyl-2-{3-[(2,4,5-trioxoimidazolidin-1-yl)methyl]phenyl}-1H-pyrazol-3-yl}-3-(4-chlorophenyl)urea] gave an IC50 of 230 nM. `CC(C)(C)c1cc(NC(=O)Nc2cccc(Cl)c2)n(-c2cccc(CO)c2)n1` [Example 406] gave an IC50 of 13.4 nM. With `CC(C)(C)c1cc(NC(=O)Nc2cccc3ccccc23)n(-c2cccc(CNC(=O)N3CCCC3)c2)n1` [Example 486, 1-(3-t-butyl-1-{3-[(pyrrolidine-1-carboxamido)methyl]phenyl}-1H-pyrazol-5-yl)-3-(naphthalen-1-yl)urea] the IC50 was 57 nM. Work on `O=C(Nc1ccc(Cl)cc1)Nc1cc(-c2ccccc2)nn1-c1ccc(CO)cc1` [Example 434, 1-(4-chlorophenyl)-3-{1-[4-(hydroxymethyl)phenyl]-3-phenyl-1H-pyrazol-5-yl}-urea] yielded an IC50 of 1900 nM. `COc1cccc(-n2nc(C(C)(C)C)cc2NC(=O)Nc2ccc3c(c2)OCO3)c1` [Example 329, 1-(benzo[d][1,3]dioxo-5-yl)-3-(3-t-butyl-1-(3-methoxyphenyl)-1H-pyrazol-5-yl)urea] was tested, and the IC50 was 250 nM. `CC(C)(C)c1cc(NC(=O)Nc2ccc(Cl)cc2)n(-c2cccc(CNC(=O)N3CCCCC3)c2)n1` [Example 488, 1-(3-t-butyl-1-{3-{(piperidine-1-carboxamido)methyl]phenyl}-1H-pyrazol-5-yl)-3-(4-chlorophenyl)urea] was tested, and the IC50 was 540 nM. In the case of `COc1cccc(-n2nc(C(C)(C)C)cc2NC(=O)Nc2cc(Cl)cc(Cl)c2)c1` [Example 319, 1-(3-t-butyl-1-(3-methoxyphenyl)-1H-pyrazol-5-yl)-3-(3,5-dichlorophenyl)urea], the IC50 is reported as 320 nM. Compound `CC(C)c1cc(NC(=O)Nc2cccc3ccccc23)n(-c2ccc(C(O)C(F)(F)F)cc2)n1` (stereo not drawn) [Example 514, 1-(1-(4-(2,2,2-trifluoro-1-hydroxyethyl)phenyl)-3-isopropyl-1H-pyrazol-5-yl)-3-(naphthalen-1-yl)urea] has an IC50 of 570 nM. With `CN(C)CCc1cccc(-n2nc(C(C)(C)C)cc2NC(=O)Nc2ccc(Cl)cc2)c1` [Example 372, 1-{3-t-butyl-1-[3-(2-(dimethylamino)ethyl]phenyl}-1H-pyrazol-5-yl)-3-(4-chlorophenyl)urea] the IC50 was 1460 nM. With `CC(C)(C)c1cc(NC(=O)Nc2ccc(Cl)cc2)n(-c2cccc(C(N)=O)c2)n1` [Example 393, 1-[3-t-butyl-1-(3-carbamoylphenyl)-1H-pyrazol-5-yl]-3-(4-chlorophenyl)urea] the IC50 was 400 nM. For `CC(C)(C)c1cc(NC(=O)Nc2cccc(F)c2F)n(-c2ccc(CO)cc2)n1` [Example 418, 1-{3-t-butyl-1-[4-(hydroxymethyl)phenyl]-1H-pyrazol-5-yl}-3-(2,3-difluoro-phenyl)urea], the IC50 was 75 nM. In the case of `COc1cccc(NC(=O)Nc2cc(C(C)(C)C)nn2-c2cccc(CCN)c2)c1` [Example 382, 1-{1-[3-(2-aminoethyl)phenyl]-3-t-butyl-1H-pyrazol-5-yl}-3-(3-methoxyphenyl)urea], the IC50 is reported as 880 nM. For `COc1cccc(-n2nc(-c3ccccc3)cc2NC(=O)Nc2cccc(Cl)c2Cl)c1` [Example 335], the IC50 was 14 nM. `CC(C)(C)c1cc(NC(=O)Nc2ccc(Cl)cc2)n(-c2cccc(CNC(=O)N3CCOCC3)c2)n1` [Example 489, 1-(3-t-butyl-1-{3-[(morpholine-4-carboxamido)methyl]phenyl}-1H-pyrazol-5-yl)-3-(4-chlorophenyl)urea] was tested, and the IC50 was 520 nM. Compound `CCOC(=O)c1cccc(-n2nc(C(C)(C)C)cc2NC(=O)Nc2cccc(Cl)c2Cl)c1` [Example 474, ethyl 3-{3-t-butyl-5-[3-(2,3-dichlorophenyl)ureido]-1H-pyrazol-1-yl}benzoate] has an IC50 of 380 nM. Work on `CC(C)(C)c1cc(NC(=O)Nc2cccc(Cl)c2Cl)n(-c2cccc(CO)c2)n1` [Example 475, 1-[3-t-butyl-1-(3-hydroxymethyl-phenyl)-1H-pyrazol-5-yl]-3-(2,3-dichlorophenyl)-urea] yielded an IC50 of 10 nM. In the case of `CCOC(=O)C(C)Cc1ccc(-n2nc(C(C)(C)C)cc2NC(=O)Nc2cccc3ccccc23)cc1` (stereo not drawn) [Example 427, ethyl 3-(4-{3-t-butyl-5-[3-(naphthalen-1-yl)ureido]-1H-pyrazol-1-yl}phenyl)-2-methylpropanoate], the IC50 is reported as 819 nM. `COc1cccc(-n2nc(C(C)(C)C)cc2NC(=O)Nc2ccsc2)c1` [Example 327, 1-(3-t-butyl-1-(3-methoxyphenyl)-1H-pyrazol-5-yl)-3-(thiophen-3-yl)urea] showed an IC50 of 810 nM. With `CC(C)(C)c1cc(NC(=O)Nc2ccc(Cl)cc2)n(-c2ccc3c(c2)CNCC3)n1` [Example 510, 1-[3-t-butyl-1-(1,2,3,4-tetrahydroisoquinolin-7-yl)-1H-pyrazol-5-yl]-3-(4-chlorophenyl)urea] the IC50 was 470 nM. For `COc1cccc(-n2nc(-c3ccccc3)cc2NC(=O)Nc2cccc(C(F)(F)F)c2)c1` [Example 333], the IC50 was 2440 nM. `CC(C)(C)c1cc(NC(=O)Nc2ccc(Cl)cc2)n(-c2cccc(CN3C(=O)C(=O)NS3(=O)=O)c2)n1` [Example 483, 1-{5-t-butyl-2-[3-(1,1,3,4-tetraoxo-1λ^6-[1,2,5]thiadiazolidin-2-ylmethyl)phenyl]-2H-pyrazol-3-yl}-3-(4-chlorophenyl)urea] gave an IC50 of 270 nM. For `COc1cccc(NC(=O)Nc2cc(C(C)(C)C)nn2-c2cccc(CO)c2)c1` [Example 409, 1-{3-t-butyl-1-[3-(hydroxymethyl)phenyl]-1H-pyrazol-5-yl}-3-(3-methoxyphenyl)urea], the IC50 was 30.9 nM.

Same assay, conditions: read-out: % Inhibition @ concentration, Table 3; at 0.1 uM
With `CC(C)(C)c1cc(NC(=O)Nc2ccc3c(c2)OCO3)n(-c2cccc(CCN)c2)n1` [Example 404, 1-{1-[3-(2-aminoethyl)phenyl]-3-t-butyl-1H-pyrazol-5-yl}-3-(benzo[d][1,3]dioxol-5-yl)urea] the inhibition at 0.1 µM was -11%. `COc1ccc(-n2nc(C(C)(C)C)cc2NC(=O)Nc2cccc(C(F)(F)F)c2)cc1` [Example 347, 1-[3-t-butyl-1-(4-methoxyphenyl)-1H-pyrazol-5-yl]-3-(3-trifluoromethylphenyl)urea] showed an inhibition at 0.1 µM of 8%. `COc1ccc(-n2nc(C(C)(C)C)cc2NC(=O)Nc2cccc(Cl)c2)cc1` [Example 350, 1-[3-t-butyl-1-(4-methoxyphenyl)-1H-pyrazol-5-yl]-3-(3-chlorophenyl)urea] gave an inhibition at 0.1 µM of 39%.

Same assay, conditions: read-out: % Inhibition @ concentration, Table 3; at 1 uM
`CC(C)(C)c1cc(NC(=O)Nc2cccc(Br)c2)n(-c2cccc(CN)c2)n1` [Example 384, 1-{1-[3-(aminomethyl)phenyl]-3-t-butyl-1H-pyrazol-5-yl}-3-(3-bromophenyl)urea] was tested, and the inhibition at 1 µM was 72%. With `CC(C)(C)c1cc(NC(=O)Nc2ccc3c(c2)OCO3)n(-c2cccc(CCN)c2)n1` [Example 404, 1-{1-[3-(2-aminoethyl)phenyl]-3-t-butyl-1H-pyrazol-5-yl}-3-(benzo[d][1,3]dioxol-5-yl)urea] the inhibition at 1 µM was 48%. `COc1ccc(-n2nc(C(C)(C)C)cc2NC(=O)Nc2cccc(C(F)(F)F)c2)cc1` [Example 347, 1-[3-t-butyl-1-(4-methoxyphenyl)-1H-pyrazol-5-yl]-3-(3-trifluoromethylphenyl)urea] was tested, and the inhibition at 1 µM was 31%. `COc1ccc(-n2nc(C(C)(C)C)cc2NC(=O)Nc2cccc(Cl)c2)cc1` [Example 350, 1-[3-t-butyl-1-(4-methoxyphenyl)-1H-pyrazol-5-yl]-3-(3-chlorophenyl)urea] gave an inhibition at 1 µM of 64%.

Same assay, conditions: read-out: % Inhibition @ concentration, Table 3; at 10 uM
Compound `O=C(O)CCc1cccc(-n2nc(C(F)(F)F)cc2NC(=O)Nc2ccc(Cl)cc2)c1` [Example 530, 3-(3-(5-(3-(4-chlorophenyl)ureido)-3-(trifluoromethyl)-1H-pyrazol-1-yl)phenyl)propanoic acid] has an inhibition at 10 µM of 83%. For `COc1cccc(-n2nc(C(C)(C)C)cc2NC(=O)Nc2cccnc2)c1` [Example 328, 1-(3-t-butyl-1-(3-methoxyphenyl)-1H-pyrazol-5-yl)-3-(pyridin-3-yl)urea], the inhibition at 10 µM was 68%. Work on `CC(C)(C)c1cc(NC(=O)Nc2cccc(Br)c2)n(-c2cccc(CN)c2)n1` [Example 384, 1-{1-[3-(aminomethyl)phenyl]-3-t-butyl-1H-pyrazol-5-yl}-3-(3-bromophenyl)urea] yielded an inhibition at 10 µM of 96%. With `CC(C)(C)c1cc(NC(=O)c2ccc3ccccc3c2)n(-c2cccc(CCC(=O)O)c2)n1` [Example 155] the inhibition at 10 µM was 58%. For `CCOC(=O)CCc1cccc(-n2nc(C(C)(C)C)cc2NC(=O)Nc2cccc3cccnc23)c1` [Example 366, 3-(3-{3-t-butyl-5-[3-(quinolin-8-yl)ureido]-1H-pyrazol-1-yl}phenyl)-propionic acid ethyl ester], the inhibition at 10 µM was 53%. For `COc1cccc(-n2nc(C)cc2NC(=O)Nc2cccc(Br)c2)c1` [Example 337, 1-(3-bromophenyl)-3-(1-(3-methoxyphenyl)-3-methyl-1H-pyrazol-5-yl)urea], the inhibition at 10 µM was 8%. Compound `CCOC(=O)CCc1cccc(-n2nc(C)cc2NC(=O)Nc2ccc(Cl)cc2)c1` [Example 531, 3-(3-{5-[3-(4-chloro-phenyl)-ureido]-3-methyl-pyrazol-1-yl}-phenyl)-propionic acid ethyl ester] has an inhibition at 10 µM of 14%. For `CC(C)(C)c1cc(NC(=O)Nc2ccc(F)cc2)n(-c2cccc(CCC(=O)O)c2)n1` [Example 146, 3-(3-{3-t-butyl-5-[3-(4-fluoro-phenyl)-ureido]-pyrazol-1-yl}-phenyl)-propionic acid], the inhibition at 10 µM was 9%.

Same assay, conditions: read-out: % inhibition @ concentration, Table 2; at 10 uM
`CC(C)(C)c1cc(NC(=O)Nc2cccc3ccccc23)n(-c2cccc(C(=O)N3C(=O)OC[C@H]3c3ccccc3)c2)n1` [Example 17, D-1-{5-tert-butyl-2-[3-(2-oxo-4-phenyl-oxazolidinyl-3-carbonyl)phenyl]-2H-pyrazol-3-yl}-3-(naphthalen-1-yl)urea] gave an inhibition at 10 µM of 40%.
